Reference: patent publication US20220315895A1, “METHODS OF MAKING OLIGOPOTENT AND UNIPOTENT PRECURSORS” (Transfusion Health, LLC, priority 2019, published 2022)

Columns and labels:
Assay type in all cases: cell-based, human
CD15+/CD14− cells = assay: Phagocytosis assay with pHrodo green Staphylococcus aureus Bioparticles (Example 39); settings: +Formula I Granulocyte Differentiation Cultures, day 13; 45 minutes at 37° C.
Method: On day 13 of Granulocyte Differentiation Culture, a portion of the culture was removed for in vitro analysis of granulocyte function through two separate assays for phagocytosis and respiratory burst. In the phagocytosis assay, the function of the cultured cells in ingesting bacteria was measured. pHrodo green Staphylococcus aureus Bioparticles (ThermoFisher), which fluoresce only when in an acidic environment such as a cellular phagosome following phagocytosis, were first treated with an opsonizing reagent to mark the particles for phagocytosis. The particles were then added to cells and incubated at 37° C. for 45 minutes. “Ice” control samples were incubated on ice during this period to prevent endocytosis and enable a measure of background fluorescence. Following this incubation, cells were stained with antibodies to CD15 and CD14, washed thoroughly, then analyzed via flow cytometry on an Attune flow cytometer. CD15+/CD14− cells were quantified for presence of phagocytosed particles.

[1] = test system: CD34+ cells from cord blood; assay: HSC Expansion Culture, 14 and 21 days (Example 41)
Method: CD34+ cells from cord blood were purchased from STEMCELL Technologies.
Primary human CD34+ cells were isolated by the supplier from cord blood samples using positive immunomagnetic separation techniques. Cells from two separate samples of cord blood were thawed, gradually brought to room temperature, then washed.
For both samples, cells were primed with an overnight culture in StemSpan with 100 ng/ml each of FLT3L, TPO, SCF, and IL-6. Eighteen hours later (day 1), cells were counted and immunophenotyped (flow cytometry on an Invitrogen Attune N×T cytometer).
The remainder of cells from both samples were placed into “HSC Expansion Culture” for either 14 days (“14-day expansion”) or 21 days (“21-day expansion”). Numbers of cells placed into HSC Expansion Culture were quantified for “Fold Expansion” calculations described below. […]
During Expansion Culture, portions of cells were passaged to one or more larger flasks (75 cm^2 or 225 cm^2) if density of cells was greater than ≥1e5 cells/ml. […] Numbers of cells seeded were recorded for “Fold Expansion” calculations, described below.
Following 21 days in Expansion Culture, a sample was taken from the 21-day expansion flask for counting and analysis of phenotypes (flow cytometry on an Invitrogen Attune N×T cytometer). […] CD34 purity was verified by flow cytometry and counts were recorded for calculation of Per-Assayed-CD34+ Cell Output, described below. […]

[2] = test system: CD15+ cells derived from cord blood CD34+ cells; assay: Progenitor Differentiation and Maturation Cultures, CD15+ output (Example 42)
Excerpt: Progenitor Differentiation Cultures were initiated following 14, 28, 42 and 64 days of CD34 expansion culture. Differentiation Sequences were created by culturing cells in a series of Differentiation Medias, for six or seven days. Differentiation Medias were made with purified cytokines: SCF, G-CSF, GM-CSF, FLT3L, IL-3, IL-6, TPO (all from R&D Systems), prepared in either StemSpan SFEM I or RPMI+10% FBS, as indicated in Table 12A and Table 12B below. Approximately 5,000-10,000 CD34+ cells were seeded into the “Day 0 media” indicated in Table 13 in 12-well plates at the beginning of the Differentiation Culture. At day two or three, a portion of cells was seeded into the subsequent media in the Sequence. If media was to be changed to a different Differentiation Media at a given day, the cells were first placed into 15 mL conical tubes and centrifuged for 5 minutes at 300×g. All supernatant was removed prior to resuspension in new media and re-plating. At days 6 or 7, as indicated in Table 13 and Table 15, a portion of cells was analyzed. […]
A number of quantities were calculated to describe the output of Differentiation Culture and the combined effects of Expansion and Differentiation Culture. These quantities and their relationships are as described in Example 41 and depicted in FIG. 68.

Structure (SMILES): CC(C)(C)C(=O)Nc1ccc2c(c1)C(O)c1ccccc1-2 (centres unmarked) [Compound 1.010]
- CD15+ cells positive for phagocytosed particles (CD15+/CD14− cells): 89%
- fold expansion of CD34+ cells ([1]; +Formula I Condition (Compound 1.010 8 μM), 14 days): 35 fold
- fold expansion of CD34+ cells ([1]; +Formula I Condition, 21-day expansion): 245 fold
- fold increase of CD15+ cell output at days six or seven of Differentiation Culture ([2]; 64 days of CD34+ expansion in +Formula I conditions, condition TT): about 43,000 fold
- CD15+ cells as percentage of total live cells ([2]; expanded in +Formula I conditions 14, 28 and 42 days, Medias A, B, C, H or T, by 6 to 7 days): > 47%
